Here are results for 1 molecule from patent publication US12570704B2, “Functionally modified maytansinoids and compositions and methods of use thereof” (University of Georgia Research Foundation, Inc., priority 2019, dated 2026).

The nature of series [1]: Time-dependent NO release in PBS of different pH (Sievers NOA 280i chemiluminescence). The series is classed as physicochemical. The source says: FIGS. 1A and 1B are schemes illustrating how DM1-NO encapsulated PLGA-b-PEG nanoparticles (DM1-NO-NPs) can accumulate in tumors through the EPR effect. In the presence of radiation and/or reduced pH in endosomes/lysosomes, the S—N bond was broken, releasing DM1 and NO. DM1 inhibits microtubule assembly, arresting cells at the more radiosensitive G2/M phase. Meanwhile, NO can react with ROS to form radicals such as peroxynitrites, causing DNA and lipid damages. The combined effects enhance the efficacy of RT. […] Quantification was based on Greiss assay. PBS, cell culture medium (RPBI-1640), DM1, and DM1-NPs were tested as controls. FIG. 1D is a histogram showing the results of DLS analysis of DM1-NO-NPs in water. FIG. 1E is a plot showing the zeta potential of DM1-NO-NPs in water. FIG. 1F is a bar graph illustrating the stability of DM1-NO under ambient conditions. After synthesis, dry product of DM1-NO was kept at room temperature and the total amount of remaining NO was quantified using Griess assay on Day 0, 7, 14, and 21. FIG. 1G is plot illustrating the stability of DM1-NO in solutions. DM1-NO (20.09 μmol) was dissolved in PBS of different pH (5.5, 6.5, and 7.4). Time-dependent NO release was measured on a Sievers NOA 280i system, which assesses NO based on gas phase chemiluminescent reaction between NO and ozone. FIG. 1H is a line graph showing release profiles for DM1-NO-NPs, tested in PBS of different pH at 37° C. by Greiss assays. FIG. 1I is a histogram showing the results of DLS analysis of DM1-NPs. FIG. 1J is a plot showing the zeta potential of DM1-NPs. FIG. 1K is a series of representative images of clonogenic assays. H1299 cells were treated with 20 nM of DM1 and DM1-NO for 12 h, followed −X-ray irradiation (6 Gy). The resulting cells were plated for clonogenic assays. FIG. 1L is a plot showing UV-vis analysis of DM1-NO, PLGA-b-PEG and DM1-NO-NPs. FIG. 1M is a plot showing FT-IR analysis of DM1-NO, PLGA-b-PEG and DM1-NO-NPs. FIG. 1N is a plot showing the results of DLS analysis (hydrodynamic size) over time for DM1-NO-NPs that were incubated in PBS for 24 h.
DM1-NO was stable under ambient conditions in the powder form. According to Griess assay, less than 10% of the compound was degraded over 2 weeks' storage at room temperature (FIG. 1F). […] (FIG. 1G), and the degradation was accelerated at low pH (e.g. pH 6.5 or 5.5, FIG. 1G, Table 1), and under X-ray irradiation (FIG. 1C).

Series [2] concerns H1299 cells. Put plainly: MTT cell viability assay, 72 h, without RT. Format: cell-based, human. Particulars: Homo sapiens, NCI-H1299. The protocol: The viability of the H1299 cells after different treatments was measured by (4,5-dimethythiazon-2-yl)-2,5-diphenyl tetrazolium bromide (MTT) assay using an Infinite M200 microplate reader (BioTek's Synergy™ Mx, USA). Around 3×10^3 cells per well were seeded into a 96-well plate and cultured overnight until the cells fully adhered to the bottom of the plate. The cells were treated with different treatment groups, including free drugs (DM1 and DM1-NO), and drug loaded nanoparticles (DM1-NPs and DM1-NO-NPs) for 72 h. […] After that MTT reagent (in 20 μL PBS, 5 mg/mL) was added to each well. The cells were further incubated for 4 h at 37° C. The medium in each well was then removed and replaced by 100 μL DMSO. The plate was gently shake for 5 min (instrument setup) to dissolve the formazan crystals, and the absorbance at 570 nm was recorded by a microplate reader. Each experiment condition was run three times and the data were shown as the mean value plus a standard deviation (±SD).
Background: Tetrazolium assays rely on reduction of a dye to a coloured formazan, in cell work by metabolically active cells.

Regarding `COc1cc2cc(c1Cl)N(C)C(=O)C[C@@H](OC(=O)[C@H](C)N(C)C(=O)CCSN=O)[C@]1(C)OC1[C@H](C)[C@@H]1C[C@@](O)(NC(=O)O1)[C@H](OC)/C=C\C=C(/C)C2` (some centres unmarked) [DM1-NO], in series [1] (PBS at 37° C., accelerated at low pH and under X-ray), the degradation in solution result is “gradually broke down”. Moreover, the “Average NO Release (per μL of sample)” value in series [1] (PBS pH 5.5) amounted to 1.29E−07 μmol NO/min; in series [1] (PBS pH 6.5) it was 7.81E−08 μmol NO/min; in series [1] (PBS pH 7.4) it was 7.83E−08 μmol NO/min. Also, in series [2], the half-inhibitory concentration (IC50) (usually the concentration that inhibits the measured activity by half) came out at 25.9 nM.
